Drawing on PubChem BioAssay AID1259407 (Chemical Carcinogenesis Research Information System (CCRIS), 2018), this text covers mutagenic call for three compounds.

The source made the active and inactive calls. How the calls were made is not given here.

The data set has as its system CCRIS mutagenicity, Ames/micronucleus/aberration tests. The data set can be described thus: CCRIS mutagenicity studies.
The mark [1] stands for this setting: Test System: AMES SALMONELLA TYPHIMURIUM, Strain/Indicator: TA98, Metabolic Activation: NONE, Method: STANDARD PLATE.
Where [2] appears, read: Test System: AMES SALMONELLA TYPHIMURIUM, Strain/Indicator: TA98, Metabolic Activation: NONE, Method: PREINCUBATION

In the case of `O=[N+]([O-])c1ccc2[nH]ccc2c1`, under setting [1], the mutagenic call was “active; positive”.
Take `Nc1cc([N+](=O)[O-])ccc1O`: the mutagenic call is, setting by setting: (End Point: IN VITRO CHROMOSOMAL ABERRATIONS, Test System: CHO CELLS, Metabolic Activation: NONE) “active; positive; precipitation occurred at all concentrations”; (End Point: IN VITRO CHROMOSOMAL ABERRATIONS, Test System: CHO CELLS, Metabolic Activation: RAT, LIVER, S-9, AROCLOR 1254) “active; positive; precipitation occurred at both concentrations”; (Test System: AMES SALMONELLA TYPHIMURIUM, Strain/Indicator: TA98, Metabolic Activation: HAMSTER, LIVER, S-9, AROCLOR 1254 (10%), Method: PREINCUBATION) “active; positive”; (Test System: AMES SALMONELLA TYPHIMURIUM, Strain/Indicator: TA98, Metabolic Activation: HAMSTER, LIVER, S-9, AROCLOR 1254, Method: PREINCUBATION) “active; positive”; under setting [2], “inactive; negative”; (Test System: AMES SALMONELLA TYPHIMURIUM, Strain/Indicator: TA98, Metabolic Activation: RAT, LIVER, S-9, AROCLOR 1254 (10%), Method: PREINCUBATION) “inactive; negative”. The mutagenic call runs as follows: (Test System: AMES SALMONELLA TYPHIMURIUM, Strain/Indicator: TA98, Metabolic Activation: RAT, LIVER, S-9, AROCLOR 1254, Method: PREINCUBATION) “inactive; negative”; (Test System: AMES SALMONELLA TYPHIMURIUM, Strain/Indicator: TA100, Metabolic Activation: RAT, LIVER, S-9, AROCLOR 1254 (10%), Method: PREINCUBATION) “inactive; negative”; (Test System: AMES SALMONELLA TYPHIMURIUM, Strain/Indicator: TA100, Metabolic Activation: RAT, LIVER, S-9, AROCLOR 1254, Method: PREINCUBATION) “inactive; negative”; (Test System: AMES SALMONELLA TYPHIMURIUM, Strain/Indicator: TA1535, Metabolic Activation: HAMSTER, LIVER, S-9, AROCLOR 1254 (10%), Method: PREINCUBATION) “inactive; negative”; (Test System: AMES SALMONELLA TYPHIMURIUM, Strain/Indicator: TA1535, Metabolic Activation: HAMSTER, LIVER, S-9, AROCLOR 1254, Method: PREINCUBATION) “inactive; negative”; (Test System: AMES SALMONELLA TYPHIMURIUM, Strain/Indicator: TA1535, Metabolic Activation: RAT, LIVER, S-9, AROCLOR 1254 (10%), Method: PREINCUBATION) “inactive; negative”. Further, the mutagenic call was “inactive; negative” (Test System: AMES SALMONELLA TYPHIMURIUM, Strain/Indicator: TA1535, Metabolic Activation: RAT, LIVER, S-9, AROCLOR 1254, Method: PREINCUBATION); “inactive; negative” (Test System: AMES SALMONELLA TYPHIMURIUM, Strain/Indicator: TA1537, Metabolic Activation: HAMSTER, LIVER, S-9, AROCLOR 1254 (10%), Method: PREINCUBATION); “inactive; negative” (Test System: AMES SALMONELLA TYPHIMURIUM, Strain/Indicator: TA1537, Metabolic Activation: HAMSTER, LIVER, S-9, AROCLOR 1254, Method: PREINCUBATION); “inactive; negative” (Test System: AMES SALMONELLA TYPHIMURIUM, Strain/Indicator: TA1537, Metabolic Activation: RAT, LIVER, S-9, AROCLOR 1254 (10%), Method: PREINCUBATION); “inactive; negative” (Test System: AMES SALMONELLA TYPHIMURIUM, Strain/Indicator: TA1537, Metabolic Activation: RAT, LIVER, S-9, AROCLOR 1254, Method: PREINCUBATION); “active; positive” (Test System: MOUSE LYMPHOMA, Strain/Indicator: L5178Y (TK+/TK-), Metabolic Activation: NONE, Method: SUSPENSION/PLATE).
As to `O=C1OC2(c3ccccc31)c1cc(I)c(O)c(I)c1Oc1c2cc(I)c(O)c1I`, the mutagenic call is “inactive; negative” (Test System: AMES SALMONELLA TYPHIMURIUM, Strain/Indicator: TA97A, Metabolic Activation: NONE, Method: PREINCUBATION); “inactive; negative” (Test System: AMES SALMONELLA TYPHIMURIUM, Strain/Indicator: TA97A, Metabolic Activation: RAT CECAL CELL-FREE EXTRACTS, Method: PREINCUBATION); “inactive; negative” (Test System: AMES SALMONELLA TYPHIMURIUM, Strain/Indicator: TA97A, Metabolic Activation: RAT, LIVER, S9, AROCLOR 1254, Method: PREINCUBATION); “inactive; negative” under setting [2]; “inactive; negative” under setting [1]; “inactive; negative” (Test System: AMES SALMONELLA TYPHIMURIUM, Strain/Indicator: TA98, Metabolic Activation: RAT CECAL CELL-FREE EXTRACTS, Method: PREINCUBATION). For the same compound, the mutagenic call (Test System: AMES SALMONELLA TYPHIMURIUM, Strain/Indicator: TA98, Metabolic Activation: RAT, LIVER, S9, AROCLOR 1254, Method: PREINCUBATION) is “inactive; negative”; the mutagenic call (Test System: AMES SALMONELLA TYPHIMURIUM, Strain/Indicator: TA98, Metabolic Activation: RAT, LIVER, S9, AROCLOR 1254, Method: STANDARD PLATE) is “inactive; negative”; the mutagenic call (Test System: AMES SALMONELLA TYPHIMURIUM, Strain/Indicator: TA98, Metabolic Activation: S9, Method: PREINCUBATION) is “inactive; negative”; the mutagenic call (Test System: AMES SALMONELLA TYPHIMURIUM, Strain/Indicator: TA100, Metabolic Activation: NONE, Method: PREINCUBATION) was “inactive; negative”; the mutagenic call (Test System: AMES SALMONELLA TYPHIMURIUM, Strain/Indicator: TA100, Metabolic Activation: NONE, Method: STANDARD PLATE) was “inactive; negative”; the mutagenic call (Test System: AMES SALMONELLA TYPHIMURIUM, Strain/Indicator: TA100, Metabolic Activation: RAT CECAL CELL-FREE EXTRACTS, Method: PREINCUBATION) was “inactive; negative”. The mutagenic call (Test System: AMES SALMONELLA TYPHIMURIUM, Strain/Indicator: TA100, Metabolic Activation: RAT, LIVER, S9, AROCLOR 1254, Method: PREINCUBATION) is “inactive; negative”; the mutagenic call (Test System: AMES SALMONELLA TYPHIMURIUM, Strain/Indicator: TA100, Metabolic Activation: RAT, LIVER, S9, AROCLOR 1254, Method: STANDARD PLATE) was “inactive; negative”; the mutagenic call (Test System: AMES SALMONELLA TYPHIMURIUM, Strain/Indicator: TA100, Metabolic Activation: S9, Method: PREINCUBATION) was “inactive; negative”; the mutagenic call (Test System: AMES SALMONELLA TYPHIMURIUM, Strain/Indicator: TA102, Metabolic Activation: NONE, Method: PREINCUBATION) was “inactive; negative”; the mutagenic call (Test System: AMES SALMONELLA TYPHIMURIUM, Strain/Indicator: TA102, Metabolic Activation: RAT CECAL CELL-FREE EXTRACTS, Method: PREINCUBATION) was “inactive; negative”; the mutagenic call (Test System: AMES SALMONELLA TYPHIMURIUM, Strain/Indicator: TA102, Metabolic Activation: RAT, LIVER, S9, AROCLOR 1254, Method: PREINCUBATION) is “inactive; negative”. The mutagenic call (Test System: AMES SALMONELLA TYPHIMURIUM, Strain/Indicator: TA104, Metabolic Activation: NONE, Method: PREINCUBATION) is “inactive; negative”; the mutagenic call (Test System: AMES SALMONELLA TYPHIMURIUM, Strain/Indicator: TA104, Metabolic Activation: RAT CECAL CELL-FREE EXTRACTS, Method: PREINCUBATION) was “inactive; negative”; the mutagenic call (Test System: AMES SALMONELLA TYPHIMURIUM, Strain/Indicator: TA104, Metabolic Activation: RAT, LIVER, S9, AROCLOR 1254, Method: PREINCUBATION) was “inactive; negative”; the mutagenic call (Test System: AMES SALMONELLA TYPHIMURIUM, Strain/Indicator: TA1535, Metabolic Activation: NONE, Method: STANDARD PLATE) was “inactive; negative”; the mutagenic call (Test System: AMES SALMONELLA TYPHIMURIUM, Strain/Indicator: TA1535, Metabolic Activation: RAT, LIVER, S9, AROCLOR 1254, Method: STANDARD PLATE) is “inactive; negative”; the mutagenic call (Test System: AMES SALMONELLA TYPHIMURIUM, Strain/Indicator: TA1537, Metabolic Activation: NONE, Method: STANDARD PLATE) is “inactive; negative”. Moreover, the mutagenic call (Test System: AMES SALMONELLA TYPHIMURIUM, Strain/Indicator: TA1537, Metabolic Activation: RAT, LIVER, S9, AROCLOR 1254, Method: STANDARD PLATE) was “inactive; negative”; the mutagenic call (Test System: AMES SALMONELLA TYPHIMURIUM, Strain/Indicator: TA1538, Metabolic Activation: NONE, Method: STANDARD PLATE) is “inactive; negative”; the mutagenic call (Test System: AMES SALMONELLA TYPHIMURIUM, Strain/Indicator: TA1538, Metabolic Activation: RAT, LIVER, S9, AROCLOR 1254, Method: STANDARD PLATE) is “inactive; negative”; the mutagenic call (Test System: MOUSE LYMPHOMA, Strain/Indicator: L5178Y (TK+/TK-), Metabolic Activation: RAT, LIVER, S9, AROCLOR 1254, Method: SUSPENSION/PLATE) was “inactive; negative”.
